In this experiment the test system is BDF1 mice, intracerebral L1210 leukemia, survival T/C. In words: NCI In Vivo Anticancer Drug Screen. Data for tumor model L1210 Leukemia (intracerebral) in B6D2F1 (BDF1) mice. As to conditions: endpoint: mean survival time, higher = longer survival. The essentials: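 Mice carrying transplanted tumour were dosed with compound; survival was recorded and expressed as treated-group value (T) divided by vehicle-control value (C).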

Where [1] appears, read: dose: 1.0 mg/kg/injection, schedule: Q01DX009 (ip), vehicle: saline.
Where [2] appears, read: dose: 2.0 mg/kg/injection, schedule: Q01DX009 (ip), vehicle: saline.
Where [3] appears, read: dose: 12.5 mg/kg/injection, schedule: Q01DX Z (ip), vehicle: carboxymethylcellulose (CMC).
The mark [4] stands for this setting: dose: 25.0 mg/kg/injection, schedule: Q01DX Z (ip), vehicle: carboxymethylcellulose (CMC).

Structures are written as SMILES. Where “and” joins values, the source holds several entries; their conditions need not be identical. Equal values may be shown once. Toxic doses and inconclusive results are not listed.

Nine molecules from PubChem BioAssay AID252 (DTP/NCI, 2004) can be followed below.

As for `N[C@@H](Cc1ccc(N(CCCl)CCCl)cc1)C(=O)O`, the T/C by setting is: under setting [1], 111 % of control; (dose: 1.0 mg/kg/injection, schedule: Q01DX Z (ip), vehicle: carboxymethylcellulose (CMC)) 98 % of control; (dose: 1.13 mg/kg/injection, schedule: Q01DX001 (ip), vehicle: carboxymethylcellulose (CMC)) 104 % of control and 97 % of control; under setting [2], 114 % of control; (dose: 2.0 mg/kg/injection, schedule: Q01DX Z (ip), vehicle: carboxymethylcellulose (CMC)) 111 % of control; (dose: 2.25 mg/kg/injection, schedule: Q01DX001 (ip), vehicle: carboxymethylcellulose (CMC)) 103 % of control and 104 % of control. Besides, the T/C is 103 % of control and 108 % of control (dose: 3.0 mg/kg/injection, schedule: Q01DX001 (ip), vehicle: carboxymethylcellulose (CMC)); 104 % of control and 110 % of control (dose: 4.5 mg/kg/injection, schedule: Q01DX001 (ip), vehicle: carboxymethylcellulose (CMC)); 102 % of control (dose: 8.0 mg/kg/injection, schedule: Q01DX Z (ip), vehicle: carboxymethylcellulose (CMC)); 119 % of control and 120 % of control (dose: 9.0 mg/kg/injection, schedule: Q01DX001 (ip), vehicle: carboxymethylcellulose (CMC)); 111 % of control and 88 % of control under setting [3]; 155 % of control (dose: 14.0 mg/kg/injection, schedule: Q01DX001 (ip), vehicle: carboxymethylcellulose (CMC)). Moreover, the T/C by setting is: (dose: 18.0 mg/kg/injection, schedule: Q01DX001 (ip), vehicle: carboxymethylcellulose (CMC)) 122 % of control; under setting [4], 88 % of control; (dose: 29.0 mg/kg/injection, schedule: Q01DX001 (ip), vehicle: carboxymethylcellulose (CMC)) 115 % of control.
On to `CN=NNc1nc[nH]c1C(N)=O`, for which the T/C is 102 % of control under setting [3]; 114 % of control under setting [4]; 111 % of control (dose: 50.0 mg/kg/injection, schedule: Q01DX Z (ip), vehicle: carboxymethylcellulose (CMC)); 87 % of control (dose: 100.0 mg/kg/injection, schedule: Q01DX Z (ip), vehicle: carboxymethylcellulose (CMC)).
With `O=NN(CCF)C(=O)NC1CCSCC1`, the T/C by setting is: (dose: 3.7 mg/kg/injection, schedule: Q01DX001 (ip), vehicle: other) 114 % of control and 123 % of control; (dose: 15.0 mg/kg/injection, schedule: Q01DX001 (ip), vehicle: other) 211 % of control and 223 % of control; (dose: 24.0 mg/kg/injection, schedule: Q01DX001 (ip), vehicle: other) 271 % of control; (dose: 31.0 mg/kg/injection, schedule: Q01DX001 (ip), vehicle: other) 460 % of control and 477 % of control; (dose: 36.0 mg/kg/injection, schedule: Q01DX001 (ip), vehicle: other) 276 % of control; (dose: 54.0 mg/kg/injection, schedule: Q01DX001 (ip), vehicle: other) 303 % of control. Moreover, where the note is “dose: 62.0 mg/kg/injection, schedule: Q01DX001 (ip), vehicle: other”, the T/C was 380 % of control.
For the molecule `CC[C@H]1CN2CCc3cc(OC)c(OC)cc3[C@@H]2C[C@@H]1C[C@H]1NCCc2cc(OC)c(OC)cc21`, the T/C reads like this: (dose: 1.0 mg/kg/injection, schedule: Q01DX005 (ip), vehicle: saline) 101 % of control; under setting [1], 100 % of control; (dose: 2.0 mg/kg/injection, schedule: Q01DX005 (ip), vehicle: saline) 100 % of control; under setting [2], 98 % of control; (dose: 2.0 mg/kg/injection, schedule: Q04DX003 (ip), vehicle: saline) 101 % of control; (dose: 4.0 mg/kg/injection, schedule: Q01DX005 (ip), vehicle: saline) 98 % of control. The T/C by setting is: (dose: 4.0 mg/kg/injection, schedule: Q01DX009 (ip), vehicle: saline) 101 % of control; (dose: 4.0 mg/kg/injection, schedule: Q04DX003 (ip), vehicle: saline) 101 % of control; (dose: 4.0 mg/kg/injection, schedule: Q08DX002 (ip), vehicle: saline) 100 % of control; (dose: 8.0 mg/kg/injection, schedule: Q01DX005 (ip), vehicle: saline) 98 % of control; (dose: 8.0 mg/kg/injection, schedule: Q01DX009 (ip), vehicle: saline) 100 % of control; (dose: 8.0 mg/kg/injection, schedule: Q04DX003 (ip), vehicle: saline) 96 % of control. Also, the T/C reads like this: (dose: 8.0 mg/kg/injection, schedule: Q08DX002 (ip), vehicle: saline) 97 % of control; (dose: 16.0 mg/kg/injection, schedule: Q01DX005 (ip), vehicle: saline) 87 % of control; (dose: 16.0 mg/kg/injection, schedule: Q04DX003 (ip), vehicle: saline) 104 % of control; (dose: 16.0 mg/kg/injection, schedule: Q08DX002 (ip), vehicle: saline) 100 % of control; (dose: 32.0 mg/kg/injection, schedule: Q04DX003 (ip), vehicle: saline) 106 % of control; (dose: 32.0 mg/kg/injection, schedule: Q08DX002 (ip), vehicle: saline) 112 % of control.
As to `Nc1nc2n[nH]nc2c(=O)[nH]1`, the T/C is 170 % of control (dose: 89.0 mg/kg/injection, schedule: Q01DX015 (ip), vehicle: water); 108 % of control (dose: 117.0 mg/kg/injection, schedule: Q01DX001 (ip), vehicle: carboxymethylcellulose (CMC)); 107 % of control (dose: 179.0 mg/kg/injection, schedule: Q01DX001 (ip), vehicle: carboxymethylcellulose (CMC)); 105 % of control (dose: 267.0 mg/kg/injection, schedule: Q01DX001 (ip), vehicle: carboxymethylcellulose (CMC)).
As for `OC(CBr)C(O)C(O)C(O)CBr` (stereo not given), the T/C reads like this: (dose: 25.0 mg/kg/injection, schedule: Q01DX009 (ip), vehicle: steriod suspending solution) 108 % of control; (dose: 50.0 mg/kg/injection, schedule: Q01DX009 (ip), vehicle: steriod suspending solution) 121 % of control; (dose: 100.0 mg/kg/injection, schedule: Q01DX009 (ip), vehicle: steriod suspending solution) 117 % of control.
As for `CC(C)(C)C1CCCC(NC(=O)N(CCCl)N=O)C1` (stereo not given), for the setting “dose: 187.0 mg/kg/injection, schedule: Q01DX001 (ip), vehicle: saline with Tween-80”, the T/C was 169 % of control.
For the molecule `CCCCCCCCSc1ncnc2c1ncn2CCCC`, the T/C is 106 % of control (dose: 125.0 mg/kg/injection, schedule: Q01DX001 (ip), vehicle: saline); 112 % of control (dose: 250.0 mg/kg/injection, schedule: Q01DX001 (ip), vehicle: saline); 106 % of control (dose: 500.0 mg/kg/injection, schedule: Q01DX001 (ip), vehicle: saline); 101 % of control (dose: 1000.0 mg/kg/injection, schedule: Q01DX001 (ip), vehicle: saline).
For `O=C1C(Cl)=C(N2CC2)C(=O)C(Cl)=C1N1CC1`, the T/C was 98 % of control (dose: 0.62 mg/kg/injection, schedule: Q01DX009 (ip), vehicle: Klucel (hydroxypropylcellulose) (HPC)); 96 % of control (dose: 0.62 mg/kg/injection, schedule: Q01DX009 (ip), vehicle: saline); 98 % of control (dose: 1.25 mg/kg/injection, schedule: Q01DX009 (ip), vehicle: Klucel (hydroxypropylcellulose) (HPC)); 120 % of control and 96 % of control (dose: 1.25 mg/kg/injection, schedule: Q01DX009 (ip), vehicle: saline); 98 % of control (dose: 2.5 mg/kg/injection, schedule: Q01DX009 (ip), vehicle: Klucel (hydroxypropylcellulose) (HPC)); 96 % of control (dose: 5.0 mg/kg/injection, schedule: Q01DX009 (ip), vehicle: Klucel (hydroxypropylcellulose) (HPC)). Besides, the T/C was 96 % of control (dose: 10.0 mg/kg/injection, schedule: Q01DX009 (ip), vehicle: Klucel (hydroxypropylcellulose) (HPC)); 90 % of control (dose: 20.0 mg/kg/injection, schedule: Q01DX009 (ip), vehicle: Klucel (hydroxypropylcellulose) (HPC)); 87 % of control (dose: 20.0 mg/kg/injection, schedule: Q01DX009 (ip), vehicle: saline).
